Drawing on PubChem BioAssay AID1259407 (Chemical Carcinogenesis Research Information System (CCRIS), 2018), this text covers mutagenic call for 7 molecules.

Calls of active or inactive are those of the source. How the calls were made is not given here.

The series relates to CCRIS mutagenicity, Ames/micronucleus/aberration tests. Briefly: CCRIS mutagenicity studies.
[1] abbreviates: Test System: AMES SALMONELLA TYPHIMURIUM, Strain/Indicator: TA98, Metabolic Activation: NONE, Method: PREINCUBATION
Where [2] appears, read: Test System: AMES SALMONELLA TYPHIMURIUM, Strain/Indicator: TA100, Metabolic Activation: NONE, Method: PREINCUBATION
Where [3] appears, read: Test System: AMES SALMONELLA TYPHIMURIUM, Strain/Indicator: TA98, Metabolic Activation: NONE, Method: STANDARD PLATE.
[4] abbreviates: Test System: AMES SALMONELLA TYPHIMURIUM, Strain/Indicator: TA98, Metabolic Activation: RAT, LIVER, S-9, AROCLOR 1254, Method: STANDARD PLATE.
The mark [5] stands for this setting: Test System: AMES SALMONELLA TYPHIMURIUM, Strain/Indicator: TA100, Metabolic Activation: NONE, Method: STANDARD PLATE.
[6] abbreviates: Test System: AMES SALMONELLA TYPHIMURIUM, Strain/Indicator: TA100, Metabolic Activation: RAT, LIVER, S-9, AROCLOR 1254, Method: STANDARD PLATE.
Where [7] appears, read: Test System: AMES SALMONELLA TYPHIMURIUM, Strain/Indicator: TA1535, Metabolic Activation: NONE, Method: STANDARD PLATE.
Where [8] appears, read: Test System: AMES SALMONELLA TYPHIMURIUM, Strain/Indicator: TA1535, Metabolic Activation: RAT, LIVER, S-9, AROCLOR 1254, Method: STANDARD PLATE.
Setting [9] is: Test System: AMES SALMONELLA TYPHIMURIUM, Strain/Indicator: TA1537, Metabolic Activation: NONE, Method: STANDARD PLATE.
Where [10] appears, read: Test System: AMES SALMONELLA TYPHIMURIUM, Strain/Indicator: TA1537, Metabolic Activation: RAT, LIVER, S-9, AROCLOR 1254, Method: STANDARD PLATE.
[11] abbreviates: Test System: AMES SALMONELLA TYPHIMURIUM, Strain/Indicator: TA1538, Metabolic Activation: NONE, Method: STANDARD PLATE.
Where [12] appears, read: Test System: AMES SALMONELLA TYPHIMURIUM, Strain/Indicator: TA1538, Metabolic Activation: RAT, LIVER, S-9, AROCLOR 1254, Method: STANDARD PLATE.

For the molecule `CCCCCCCCCCCCCCC1CO1` (stereo not drawn), the mutagenic call is “inactive; negative” (Test System: AMES SALMONELLA TYPHIMURIUM, Strain/Indicator: TA98, Metabolic Activation: HAMSTER, LIVER, S-9, AROCLOR 1254 (10%), Method: PREINCUBATION); “inactive; negative” under setting [1]; “inactive; negative” (Test System: AMES SALMONELLA TYPHIMURIUM, Strain/Indicator: TA98, Metabolic Activation: RAT, LIVER, S-9, AROCLOR 1254 (10%), Method: PREINCUBATION); “inactive; negative” (Test System: AMES SALMONELLA TYPHIMURIUM, Strain/Indicator: TA100, Metabolic Activation: HAMSTER, LIVER, S-9, AROCLOR 1254 (10%), Method: PREINCUBATION); “inactive; negative” under setting [2]; “inactive; negative” (Test System: AMES SALMONELLA TYPHIMURIUM, Strain/Indicator: TA100, Metabolic Activation: RAT, LIVER, S-9, AROCLOR 1254 (10%), Method: PREINCUBATION). For the same molecule, the mutagenic call runs as follows: (Test System: AMES SALMONELLA TYPHIMURIUM, Strain/Indicator: TA1535, Metabolic Activation: HAMSTER, LIVER, S-9, AROCLOR 1254 (10%), Method: PREINCUBATION) “inactive; negative”; (Test System: AMES SALMONELLA TYPHIMURIUM, Strain/Indicator: TA1535, Metabolic Activation: NONE, Method: PREINCUBATION) “inactive; negative”; (Test System: AMES SALMONELLA TYPHIMURIUM, Strain/Indicator: TA1535, Metabolic Activation: RAT, LIVER, S-9, AROCLOR 1254 (10%), Method: PREINCUBATION) “inactive; negative”; (Test System: AMES SALMONELLA TYPHIMURIUM, Strain/Indicator: TA1537, Metabolic Activation: HAMSTER, LIVER, S-9, AROCLOR 1254 (10%), Method: PREINCUBATION) “inactive; negative”; (Test System: AMES SALMONELLA TYPHIMURIUM, Strain/Indicator: TA1537, Metabolic Activation: NONE, Method: PREINCUBATION) “inactive; negative”; (Test System: AMES SALMONELLA TYPHIMURIUM, Strain/Indicator: TA1537, Metabolic Activation: RAT, LIVER, S-9, AROCLOR 1254 (10%), Method: PREINCUBATION) “inactive; negative”.
Regarding `CCCCCCCCCCCCCCCCCCO`, the mutagenic call was “inactive; negative” under setting [3]; “inactive; negative” under setting [4]; “inactive; negative” under setting [5]; “inactive; negative” under setting [6]; “inactive; negative” under setting [7]; “inactive; negative” under setting [8]. Besides, the mutagenic call is “inactive; negative” under setting [9]; “inactive; negative” under setting [10]; “inactive; negative” under setting [11]; “inactive; negative” under setting [12]; “inactive; negative” (Test System: E. COLI, Strain/Indicator: WP2, Metabolic Activation: NONE, Method: STANDARD PLATE); “inactive; negative” (Test System: E. COLI, Strain/Indicator: WP2, Metabolic Activation: RAT, LIVER, S-9, AROCLOR 1254, Method: STANDARD PLATE).
Take `CSCCC(NC(=O)COc1cc(Cl)c(Cl)cc1Cl)C(=O)O` (stereo not drawn): the mutagenic call reads like this: (Test System: AMES SALMONELLA TYPHIMURIUM, Strain/Indicator: TA97, Metabolic Activation: NONE, Method: STANDARD PLATE) “inactive; negative”; (Test System: AMES SALMONELLA TYPHIMURIUM, Strain/Indicator: TA97, Metabolic Activation: RAT, LIVER, S-9, AROCLOR 1254, Method: STANDARD PLATE) “inactive; negative”; under setting [3], “inactive; negative”; under setting [4], “inactive; negative”; under setting [5], “inactive; negative”; under setting [6], “inactive; negative”. The mutagenic call runs as follows: under setting [7], “inactive; negative”; under setting [8], “inactive; negative”; under setting [11], “inactive; negative”; under setting [12], “inactive; negative”.
With `CN(C)c1ccc(N=Nc2cccnc2)cc1`, the mutagenic call under setting [3] is “inactive; negative”; the mutagenic call under setting [4] was “inactive; negative”; the mutagenic call under setting [5] is “inactive; negative”; the mutagenic call under setting [6] is “inactive; negative”; the mutagenic call under setting [7] was “inactive; negative”; the mutagenic call under setting [8] was “inactive; negative”. The mutagenic call is “inactive; negative” under setting [9], “inactive; negative” under setting [10], “inactive; negative” under setting [11] and “inactive; negative” under setting [12].
In the case of `Cc1cccc(C)c1C`, the mutagenic call runs as follows: (Test System: AMES SALMONELLA TYPHIMURIUM, Strain/Indicator: TA97A, Metabolic Activation: NONE, Method: STANDARD PLATE) “active; positive”; (Test System: AMES SALMONELLA TYPHIMURIUM, Strain/Indicator: TA97A, Metabolic Activation: RAT, LIVER, S-9, AROCLOR 1254, Method: STANDARD PLATE) “inactive; negative”; under setting [3], “active; positive”; under setting [4], “inactive; negative”; under setting [5], “active; positive”; under setting [6], “inactive; negative”. Moreover, the mutagenic call is, setting by setting: (Test System: AMES SALMONELLA TYPHIMURIUM, Strain/Indicator: TA102, Metabolic Activation: NONE, Method: STANDARD PLATE) “active; positive”; (Test System: AMES SALMONELLA TYPHIMURIUM, Strain/Indicator: TA102, Metabolic Activation: RAT, LIVER, S-9, AROCLOR 1254, Method: STANDARD PLATE) “inactive; negative”.
Take `CN(Cc1ccccc1)C(=O)CBr`: the mutagenic call (Test System: AMES SALMONELLA TYPHIMURIUM, Strain/Indicator: TA100, Metabolic Activation: MOUSE, LIVER, S-9, AROCLOR 1254, Method: STANDARD PLATE) is “inactive; negative” and the mutagenic call under setting [5] was “inactive; negative”.
As to `CC(=O)c1cccc(N=Nc2ccc(N)c(C(C)=O)c2C)c1C`, the mutagenic call reads like this: under setting [1], “inactive; negative”; (Test System: AMES SALMONELLA TYPHIMURIUM, Strain/Indicator: TA98, Metabolic Activation: RAT, LIVER, S-9, PHENOBARBITAL AND 5,6-BENZOFLAVONE, Method: PREINCUBATION) “inactive; negative”; under setting [2], “inactive; negative”; (Test System: AMES SALMONELLA TYPHIMURIUM, Strain/Indicator: TA100, Metabolic Activation: RAT, LIVER, S-9, PHENOBARBITAL AND 5,6-BENZOFLAVONE, Method: PREINCUBATION) “inactive; negative”.
